# Results: publication PMC7913925, “Design and Evaluation of a Polypeptide That Mimics the Integrin Binding Site for EDA Fibronectin to Block Profibrotic Cell Activity” (International Journal of Molecular Sciences, 2021)
# Bridges are numbered along the chain shown (N, C = ends). Where no end group is shown, it is not given here.
# Tests used:
# [1] = system: integrin α4 protein (ITGA4); assay: Western blot total protein ITGA4; format: cell-based; conditions: 48 h TGF-β1, AF38Pep or TGF-β1+AF38Pep
# [2] = system: Mrtfa mRNA in NIH/3T3 fibroblasts; assay: qRT-PCR Mrtfa mRNA; format: cell-based, mouse; conditions: 48 h, TGF-β1 10 ng/mL
# Description: Reverse transcription (RT) and real-time quantitative PCR (qRT-PCR) were used to assess ACTA2/Acta2, Col1a1, Col3a1, Fn1, Eda-Fn1, Mmp9, Tgfb1, Ltbp1, Hic5, and Mrtfa mRNA expressions. Custom PCR primers were designed in-house (Table 2) and then synthesized by BGI (Beijing, China). Cells were grown in 6-well culture plates and washed with phosphate buffered saline (PBS) before lysis with TRIzon Reagent (CWBio, Beijing, China) and total RNA purification according to the manufacturer’s protocol. Reverse transcription was carried using the TransScript First-Strand cDNA Synthesis SuperMix kit according to the manufacturer’s protocol (TransGen, Beijing, China), using the random primer method for the initiation of cDNA synthesis. Nuclease-free H2O replaced the RNA sample to serve as a negative control for the reverse transcription reaction. For qRT-PCR, 10 µL 2× TransStart Top Green qPCR SuperMix was added to each well of a 96-well PCR plate containing 0.4 µL forward primer, 0.4 µL reverse primer, […], and nuclease-free water to a total volume of 20 µL. The qRT-PCR reaction was completed using a CFX96 Real-Time PCR Detection System (Bio-Rad Laboratories, Hercules, CA, USA). Amplification used the following parameters: 94 °C for 30 s, followed by 40 cycles of 94 °C for 5 s, 55 °C for 15 s, 72 °C for 10 s, and then a dissociation stage (melt-curve). […]
# [3] = system: NIH/3T3 fibroblasts, collagen gel contraction; assay: Collagen gel contraction assay; format: cell-based, mouse; conditions: TGF-β1 10 ng/mL + AF38Pep 10 µg/mL vs TGF-β1 alone
# Description: Approximately 2 × 10^4/mL NIH/3T3 fibroblasts were added to a solution containing 3 mg/mL rat tail collagen type I (BD Biosciences, San Diego, CA, USA), 260 mM NaHCO3, 200 mM HEPES and 50 mM NaOH. To each well of a 24-well cell culture plate, 500 µL of collagen-cell solution was added and allowed to polymerize at 37 °C for 1 h. The gels were carefully detached from the well walls before resuspension of gels in 1% FBS-DMEM and maintained at 37 °C, in a 5% CO2 atmosphere for 24 h. The DMEM medium was removed and replaced with serum-free DMEM medium with or without 10 ng/mL TGF-β1 and/or 10 µg/mL AF38Pep. Gels were photographed and measured at days 0, 1, 2, 4, and 6 after treatment. The average contraction values were obtained using ImageJ v1.37c (NIH, Bethesda, MD, USA) and are expressed as a percentage of contraction versus the initial gel diameter at 0 days.
sequence,measurement,setting,value
VMPYISTTPAKPCTSENCGNSWYGGFKSKNENKIYFIN (disulfide 13-18 (inferred)) [AF38Pep],ITGA4 total protein,[1],remained unaffected
same,MRTFA mRNA expression,[2],attenuated
same,collagen gel contraction,[3]; 96 h,significantly delayed collagen gel contraction
same,collagen gel contraction,[3]; 144 h,maintained a significant difference in contraction
